According to patent US9907791B2, “Ron inhibitors for use in preventing and treating bone loss” (UNIVERSITY OF UTAH RESEARCH FOUNDATION, priority 2014, dated 2018):

Assay: Human plasma BSAP levels, Phase I patients
Type: in vivo
Conditions: change compared to baseline
Description: All samples were de-identified and the experiments were approved by the University of Utah Institutional Review Board. Plasma samples were submitted to ARUP for clinical testing of CTX. For BSAP, the Human Bone Panel I capture plate with the Human Alkaline Phosphatase detection kit was utilized (Meso Scale Discovery, Rockville, Md.; […]-2) to measure BSAP levels in undiluted plasma samples per the manufacturer's protocol. ASLAN002 is currently in Phase I testing as an anti-cancer agent (NCT01721148). Regardless of cancer diagnosis, and even in the absence of bone metastasis, RON inhibition might affect normal bone turnover, especially in postmenopausal women due to their high rate of bone loss. […] Shown in FIG. 15A is quantification of the percent change in plasma CTX levels (compared to baseline prior to drug treatment) in blood plasma of patients receiving ASLAN002 in the Phase I clinical trial. […] None of the patients analyzed were treated concurrently with anti-osteoporotic agents. […] Shown in FIG. 15B is quantification of the percent change in BSAP levels (compared to baseline) in blood plasma of patients receiving ASLAN002. […] Note that these patients were not selected based on a diagnosis of bone metastasis; rather, markers of bone turnover in patients with various cancer diagnoses who participated in the Phase I trial of ASLAN002 were simply assessed.

## CCOc1ccn(-c2ccc(F)cc2)c(=O)c1C(=O)Nc1ccc(Oc2ccnc(N)c2Cl)c(F)c1 [ASLAN002]
  plasma bone-specific alkaline phosphatase (BSAP) levels: increased plasma BSAP
